This is an account of results in PubChem BioAssay (NCI).

What all share (experiment): NCI tumour cell line growth inhibition, 48 h
Assay [1] relates to BT-549 breast.
The test system of assay [2] is U251 CNS.
The test system of assay [3] is OVCAR-3 ovarian.
The test system of assay [4] is SNB-75 CNS.
The test system of assay [5] is CAKI-1 renal.
Assay [6] deals with SNB-19 CNS.
The test system of assay [7] is HL-60(TB) leukemia.
Assay [8] has as its system A498 renal.
Assay [9] concerns MALME-3M melanoma.
Assay [10] has as its system COLO 205 colon.
Assay [11] has as its system RPMI-8226 leukemia.
Assay [12] deals with MDA-N.

Several values for one entry are separate records, joined by “and”; a condition that tells them apart may be missing. Equal values may be shown once.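 Step 1: Grow cells in 96-well plates. Step 2: Expose to compound for 48 hours at 5 concentrations. Step 3: Interpolate endpoints linearly; if unreached, use highest concentration. GI50 is the concentration that inhibits growth by half. TGI: total growth inhibition.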

With `N#Cc1ccccc1OCCOc1ccccc1C#N`, the TGI in [1], in assay [2], in assay [3], in assay [4], in assay [5] and in assay [6] was over 100 µM throughout. Also, the TGI in assay [7], in [8], in [9], in assay [10] and in [11] was over 100 µM each time.
Turning to `COc1ccc2nc3c(c(N)c2c1)C1CCC3C1(C)C` (configuration not stated), the TGI in assay [1], in assay [2], in [3], in assay [4], in [5] and in assay [6] was over 100 µM in each case. Further, the TGI was determined as 68.6 µM in [7]; 70.7 µM in assay [8]; 67.3 µM in assay [9]; 36.2 µM in assay [10]; 58.7 µM in assay [11].
As to `Cn1c2ccccc2c(=O)c2c(O)cc3c(c21)C1OCC(C)(O)C1O3` (configuration not stated), the TGI in assay [2] is 62.5 µM; in assay [12] it was over 100 µM; in assay [4] it was 56 µM; in [5] it was over 100 µM; in assay [6], over 100 µM; in assay [7], over 100 µM. The TGI in [10] and in assay [11] was over 100 µM throughout.
In the case of `C=CCON(C(=O)OC(C)(C)C)C(C)(C)C`, the TGI in [1], in [2], in assay [3], in assay [4], in assay [5] and in assay [6] was over 100 µM in each case. The TGI in [7], in assay [8], in [9], in [10] and in assay [11] was over 100 µM throughout.
For the compound `Cc1c(C)c(S(=O)(=O)N(CCCCN)OCCCN)c(C)c2c1OC(C)(C)CC2`, the TGI was over 100 µM in assay [2]; over 100 µM in assay [12]; 30.6 µM in assay [3]; 32.7 µM in assay [4]; over 100 µM in assay [5]; 37.3 µM in assay [6]. Further, the TGI was over 100 µM in assay [7], 41.6 µM in assay [8], over 100 µM in assay [10] and 66.5 µM in assay [11].
With `CC(SC(=S)N1CCOCC1)C(=O)Nc1nnc(-c2ccc(Cl)cc2)o1` (configuration not stated), the TGI in [1], in [2], in assay [3], in [4], in [6] and in assay [8] was over 100 µM throughout. The TGI in assay [9] was over 100 µM; in [10], over 100 µM; in assay [11] it was 66.3 µM.
`O=C1c2ccccc2N2OC3(N4CCOCC4)CCCC3C12c1ccccc1` (configuration not stated): the TGI in assay [2], in assay [4], in assay [6], in assay [7], in [8] and in [9] was over 100 µM in each case. Further, the TGI in assay [10] and in assay [11] was over 100 µM each time.
On to `O=C(CSCC(=O)N/N=C/c1cccc(O)c1)N/N=C/c1cccc(O)c1`, for which the TGI in assay [2], in [3], in assay [4], in assay [5], in [6] and in assay [7] was over 100 µM throughout. Also, the TGI in assay [8], in assay [9], in [10] and in [11] was over 100 µM each time.
As to `CCOC(=O)C1(C/C=C\CBr)CCCC1=O` (configuration not stated), the TGI in assay [1] is 80.3 µM; in assay [2], 48.7 µM; in [4] it was over 100 µM; in [5], over 100 µM; in assay [6], over 100 µM; in [8] it was over 100 µM. Also, the TGI in [9] and in assay [10] was over 100 µM in each case.
As for `COC(=O)[C@@]12OC[C@]34C([C@@H](O)C1O)[C@@]1(C)CC(=O)C(OC(=O)CC(C)C(F)(F)F)=C(C)C1C[C@H]3OC(=O)[C@H](O)[C@H]42` (some centres not stated), the TGI in assay [2] is over 62.5 µM; in [4], 31.4 µM; in assay [5], over 62.5 µM; in assay [6], 22.4 µM; in [7], 1.98 µM; in assay [8], 0.625 µM. For the same compound, the results for the TGI in [9], in [10] and in [11] were 3.69 µM, 30 µM and 5.56 µM, respectively.
As to `O=C1CC(c2cccc(Cl)c2)Nc2ccc(N3CCCC3)cc21` (configuration not stated), the TGI in assay [2] was over 100 µM; in assay [3], over 100 µM; in [5], over 100 µM; in assay [6], over 100 µM; in assay [8], over 100 µM; in assay [11], 0.0171 µM.
On to `COc1cc(C2c3cc4c(cc3OC(NN)C2C)OCO4)cc(OC)c1O` (configuration not stated), for which the TGI was 51.3 µM in assay [1]; 33.5 µM in [2]; over 100 µM in assay [3]; over 100 µM in assay [4]; over 100 µM in [5]; over 100 µM in [6]. Further, the TGI in assay [7] came out at 5.32 µM; in assay [9], 40.1 µM; in [10], 40.4 µM; in assay [11], 17.8 µM.
`CC1(C)O[C@@H]2[C@@H](COC(C)(C)O[C@H]2C2SCCCS2)O1`: the TGI in [2], in assay [12], in assay [3], in assay [5], in [6] and in assay [8] was over 100 µM throughout. The TGI in assay [9], in assay [10] and in [11] was over 100 µM each time.
As to `c1cc(-c2ccc(-c3ccsc3)s2)cs1`, the TGI in assay [2] was 49.7 µM; in assay [12] it was over 100 µM; in assay [3], over 100 µM; in assay [4], 76.4 µM; in assay [5] it was over 100 µM; in assay [7], 67 µM. The TGI in assay [8], in assay [10] and in assay [11] was over 100 µM each time.
Regarding `CC(C)(C)OC(=O)N(CCCCNC(=O)C(F)(F)F)CCCNC(=O)C(F)(F)F`, the TGI in assay [1], in [2], in assay [3], in assay [4], in [5] and in assay [6] was over 100 µM each time. Besides, the TGI in [7], in [8], in [10] and in assay [11] was over 100 µM each time.
With `CCOC(=O)c1c2c(n(-c3ccc(C)cc3)c1C)-c1ccccc1C(=O)C2(C(=O)OCC)C(=O)OCC`, the TGI in assay [1] was 55.2 µM; in assay [2] it was over 100 µM; in assay [3], 69.2 µM; in assay [4], over 91.4 µM; in [5] it was over 100 µM; in assay [6], over 100 µM. Further, the TGI in [7] was 18.6 µM; in assay [8], 97.3 µM; in [9], over 75.5 µM; in [10], over 100 µM; in assay [11] it was 57.5 µM.
Turning to `CN1CCOC(C(NC(=O)c2ccccc2)c2ccccc2)C1=O` (configuration not stated), the TGI in [2], in [3], in assay [4], in assay [5], in [6] and in assay [7] was over 100 µM in each case. The TGI in assay [8], in assay [9], in assay [10] and in [11] was over 100 µM throughout.
With `Oc1c(N2CCCCC2)cc(-c2cc(N3CCCCC3)c(O)c3ccccc23)c2ccccc12`, the TGI in assay [2] was over 100 µM; in assay [12] it was 33.5 µM; in [3] it was over 100 µM; in [5], over 100 µM; in assay [6], over 100 µM; in assay [7], over 100 µM. The results for the TGI in [9], in assay [10] and in assay [11] were 24.3 µM, 67.6 µM and over 100 µM, respectively.
`COC(=O)c1cc2c(cc1Cl)Sc1nnc(Nc3ccccc3)n1S2(=O)=O`: the TGI in [1] was determined as 14.5 µM; in assay [2], 11.6 µM; in assay [3] it was 3.36 µM; in assay [4], 17.1 µM; in [5], 7.23 µM; in [6], 7.98 µM. Further, the TGI in [7] was found to be 7.62 µM; in assay [8], 12.9 µM; in assay [9], 11.6 µM; in assay [10], 19.5 µM; in [11], 4.02 µM.
In the case of `C[C@H]1CC[C@@]2(OC1)O[C@H]1C[C@H]3[C@@H]4CC[C@@H]5C[C@@H](OC6OC(CO)C(O)C(O)C6OC6OC(CO)C(O)C(O)C6O)CC[C@]5(C)[C@H]4CC[C@]3(C)[C@H]1[C@@H]2C` (some centres not stated), the TGI came out at 4.1 µM in assay [1]; 4 µM in assay [2]; 3.88 µM in [3]; 4.07 µM in [4]; 3.44 µM in assay [5]; 3.9 µM in assay [6]. In addition, the TGI in [7] turned out to be 3.25 µM; in assay [9] it was 4.5 µM; in [10], 3.55 µM; in assay [11], 3.97 µM.
Regarding `CC(C)(CN1CCCCC1)C(=O)/C=C/c1ccc(Br)cc1`, the TGI is 8.11 µM in [2]; 5.51 µM in assay [3]; 14.9 µM in assay [4]; 3.71 µM in [5]; 4.75 µM in [6]; 5.83 µM in assay [7]. Besides, the TGI is 5.8 µM in [8], 17.4 µM in assay [9], 5.56 µM in assay [10] and over 27.1 µM in assay [11].
As to `COc1cc([C@@H]2c3cc4c(cc3[C@@H](Nc3ccc(NC(=O)c5cc([N+](=O)[O-])cn5C)cc3)[C@H]3COC(=O)[C@H]23)OCO4)cc(OC)c1O`, the GI50 in [1] was 0.515 µM; in assay [2] it was 0.0436 µM and 0.337 µM; in [5], 0.0214 µM and 0.0725 µM; in assay [8], 0.0233 µM and 0.0897 µM; in [9], 0.279 µM and 0.115 µM; in [11] it was under 0.01 µM. Moreover, the TGI is over 100 µM in assay [1]; over 57.5 µM in assay [2]; 10.7 µM and 3.15 µM in assay [3]; over 63.5 µM in assay [4]; 0.204 µM and 0.338 µM in assay [5]; over 44.5 µM in [6]. Moreover, the TGI in assay [7] was 0.201 µM and 0.0837 µM; in assay [8], 0.402 µM and 0.476 µM; in [10] it was 2.61 µM and 1.3 µM; in [11] it was 0.116 µM.
For the compound `O=C(c1ccccc1)C1(Br)S(=O)(=O)OCCOS1(=O)=O`, the TGI in [2], in [3], in assay [4], in [6], in assay [7] and in assay [8] was over 100 µM in each case. Also, the TGI in [9], in [10] and in assay [11] was over 100 µM in each case.
In the case of `NS(=O)(=O)c1nnc(NC(=S)NC(=O)Nc2ccc(Cl)c(Cl)c2)s1`, the TGI in assay [1] was 50.2 µM; in [2] it was over 100 µM; in assay [3], 62 µM; in assay [4], 50 µM; in assay [5] it was 63.6 µM; in [6] it was 94.8 µM. Moreover, the TGI is 87.6 µM in assay [7], 59 µM in [9], 39.1 µM in [10] and over 100 µM in assay [11].
As to `CCOC(=O)c1c(NC(=O)c2ccccc2)c(C#N)c2n1CCCCC2`, the TGI in assay [2], in assay [12], in assay [4], in [5], in assay [6] and in assay [7] was over 100 µM throughout. Further, the TGI in assay [9], in [10] and in assay [11] was over 100 µM throughout.
Turning to `CCOC(=O)C1S(=O)(=O)OCCOS1(=O)=O`, the TGI in assay [3], in [4], in assay [5], in assay [6], in [7] and in [9] was over 100 µM throughout. Moreover, the TGI in assay [10] and in assay [11] was over 100 µM each time.
For `CN(NC1=NCCO1)c1ccc2ccccc2c1`, the TGI was over 100 µM in [2]; 72.7 µM in [3]; 74.7 µM in [4]; over 100 µM in [5]; over 100 µM in assay [6]; 52.7 µM in assay [7]. Also, the TGI in [8], in assay [9], in [10] and in assay [11] was over 100 µM each time.
